Laboratory results as given in US20090286713A9, “Collagen Receptor I-Domain Binding Modulators” (Biotie Therapies Corporation, priority 2005, published 2009).

Columns and labels:
[1] = target: T1, CHO cells expressing α2β1 integrin (Homo sapiens, UniProt P17301); experiment: Cell adhesion assay, CHO-α2 cells on collagen type I; format: cell-based, Chinese Hamster; settings: FIG. 10A, 10B
T1 sequence (P17301 1-1181): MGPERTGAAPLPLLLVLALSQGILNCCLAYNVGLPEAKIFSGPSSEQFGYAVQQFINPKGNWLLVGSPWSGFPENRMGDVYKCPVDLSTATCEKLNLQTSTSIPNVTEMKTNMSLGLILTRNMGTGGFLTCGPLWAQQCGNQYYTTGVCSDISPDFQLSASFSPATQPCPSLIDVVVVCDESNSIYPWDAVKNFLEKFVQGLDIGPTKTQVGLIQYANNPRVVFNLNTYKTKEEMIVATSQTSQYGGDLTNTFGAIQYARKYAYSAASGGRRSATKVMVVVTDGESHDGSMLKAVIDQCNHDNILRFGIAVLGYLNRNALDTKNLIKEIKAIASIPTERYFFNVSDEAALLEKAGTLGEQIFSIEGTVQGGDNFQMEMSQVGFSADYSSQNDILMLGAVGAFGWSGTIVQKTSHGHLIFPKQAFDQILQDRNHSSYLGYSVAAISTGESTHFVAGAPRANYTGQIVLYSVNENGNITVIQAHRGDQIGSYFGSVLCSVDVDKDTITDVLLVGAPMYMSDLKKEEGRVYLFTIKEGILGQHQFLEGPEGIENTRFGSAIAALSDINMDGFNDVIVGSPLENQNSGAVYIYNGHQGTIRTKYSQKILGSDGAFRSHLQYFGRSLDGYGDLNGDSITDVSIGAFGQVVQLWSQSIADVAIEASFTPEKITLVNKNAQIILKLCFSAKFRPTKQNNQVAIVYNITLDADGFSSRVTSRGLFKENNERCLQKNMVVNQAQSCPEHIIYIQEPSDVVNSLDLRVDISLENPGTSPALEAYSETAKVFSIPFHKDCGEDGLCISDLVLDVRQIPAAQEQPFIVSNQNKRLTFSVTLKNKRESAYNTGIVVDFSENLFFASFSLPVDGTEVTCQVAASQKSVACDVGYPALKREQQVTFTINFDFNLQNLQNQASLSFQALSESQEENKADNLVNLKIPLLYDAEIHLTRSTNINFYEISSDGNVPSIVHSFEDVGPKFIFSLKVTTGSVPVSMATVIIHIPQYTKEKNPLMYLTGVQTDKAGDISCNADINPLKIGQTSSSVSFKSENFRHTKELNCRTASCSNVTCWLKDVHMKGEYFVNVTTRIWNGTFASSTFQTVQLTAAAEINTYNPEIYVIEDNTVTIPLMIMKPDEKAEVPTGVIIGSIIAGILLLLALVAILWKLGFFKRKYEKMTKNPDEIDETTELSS
Method: (§1) Chinese Hamster Ovary (CHO) cell clone expressing wild type α2 integrin was used in cell adhesion assay. Cells were suspended in serum free medium containing 0.1 mg/ml cycloheximide (Sigma) and the compounds were preincubated with the cells prior to transfer to the wells. Cells (150000/well) were allowed to attach on collagen type I coated wells (in the presence and absence of inhibitor compounds) for 2 h at +37° C. and after that non-adherent cells were removed. Fresh serum free medium was added and the living cells were detected using a cell viability kit (Roche) according to the manufacturers protocol.
(§2) For this purpose CHO cells were transfected to express α2β1 integrin on their surface as their only collagen receptor.

[2] = target: T2, CHO cells expressing α2β1 integrin (Homo sapiens, UniProt P05556+P17301); experiment: as above; format: cell-based, Chinese Hamster; settings: CHO cells expressing α2β1; FIG. 10A; read-out: EC50 of cell adhesion to type I collagen
T2 sequence (P17301 1-1181): T1 sequence (P17301 1-1181)
Method: as §1, §2

α1 I-domain = target: T3, α1 I-domain (Homo sapiens, UniProt P56199); experiment: Solid-phase binding assay, α1 I-domain binding to type I collagen; settings: at 0.05 mM concentration; FIG. 9
T3 construct: corresponding to amino acids 123-338 of the whole α1 integrin; made in house; host or cells: E. coli BL21 (pGEX-4T-3)
T3 sequence (P56199 151-366): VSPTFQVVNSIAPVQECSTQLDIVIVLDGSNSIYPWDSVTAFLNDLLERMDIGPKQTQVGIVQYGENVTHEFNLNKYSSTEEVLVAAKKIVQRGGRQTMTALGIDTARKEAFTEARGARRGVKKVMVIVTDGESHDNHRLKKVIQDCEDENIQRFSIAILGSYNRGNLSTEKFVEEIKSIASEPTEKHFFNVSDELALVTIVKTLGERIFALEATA
Method: Solid-phase binding assay for α1-domains—The coating of a 96-well high binding microtiter plate (Nune) was done by exposure to 0.1 ml of PBS containing 5 μg/cm2 (15 μg/ml) collagens or 20 μg/ml triple-helical peptides overnight at +4° C. Blank wells were coated with 1:1 solution of 0.1 ml Delfia® Diluent II (Wallac) and PBS. Residual protein absorption sites on all wells were blocked with 1:1 solution of 0.1 ml Delfia® Diluent II (Wallac) and PBS. Recombinant proteins (αI-GST) were added to the coated wells at a desired concentration in Delfia® Assay Buffer and incubated for 1 h at room temperature. Europium-labelled anti-GST antibody (Wallac) was then added (typically 1:1000), and the mixture was incubated for 1 h at room temperature. All incubations mentioned above were done in the presence of 2 mM MgCl2. Delfia® enhancement solution (Wallac) was added to each well and the Europium signal was measured by time-resolved fluorometry (Victor2 multilabel counter, Wallac). At least three parallel wells were analyzed. In some cases some what modified solid-phase assay was used and it was performed according Tulla et al, 2001. It uses anti-GST and Europium-labelled protein G instead of Europium-labelled anti-GST antibody.
The tetracyclic Streptomyces compounds synthesised in Example 1, where screened for inhibition of collagen binding to α1 and α2 I-domains, using the α I-domain assay described in Example 4. […] L3015 could inhibit the binding of both α1I and α2 I-domains to type I and type IV collagen (FIG. 6B).
Furthermore α1I and α2 I-domain binding to collagen I in the presence of lovastatin was tested in the europium-labelled anti-GST assay described in Example 4. Lovastatin is an allosteric inhibitor of leukocyte integrin α I-domains (e.g. αL I-domain), and the binding site of lovastatin represents an optional binding site for possible modulators. […] These biological tests gave further evidence that collagen receptor α I-domains are inhibited by direct blocking of the MIDAS surface by tetracyclic polyketide.

COC(=O)c1c(C(C)C)cc(O)c2c(O)c3c(c(O)c12)C(=O)c1cccc(O)c1C3=O [Compound L3009, methyl 4,5,7,12-tetrahydroxy-2-methylethyl)-6,11-dioxonaphthacenecarboxylate]
inhibition of cell adhesion to collagen type I (in words) [1]: potent inhibitor
EC50 [2]: ~20 µM
inhibition of collagen I binding of α1I (α1 I-domain): could inhibit
